Reference: patent US10435388B2, “Selective inhibitors of clinically important mutants of the EGFR tyrosine kinase” (CS PHARMATECH LIMITED, priority 2016, dated 2019)
Counter-ions that a name gives are not always drawn.

Columns and labels:
A431 cells (WT) = experiment: A431 inhibition assay (cell proliferation), Method B; format: cell-based, human; conditions: Homo sapiens, A-431, 72 h, cellular proliferation, several runs
Protocol: (§1) Cell Proliferation Assays—Method B
A431 Inhibition Assay, (Cell Proliferation).
The rest procedure was conducted in the same manner as described above for H1975 cells.

H1975 cells (DM) = experiment: H1975 inhibition assay (cell proliferation), Method B; format: cell-based; conditions: cellular proliferation, several runs
Protocol: as §1
H1975 Inhibition Assay (Cell Proliferation).
(§2) Test compounds were dissolved in DMSO at 30 mM.
(§3) The final concentration was 1,000 cells/well. Add medium only as low control. […] 5% CO2 incubator for 72 hours.
(§4) After 72 hours incubation, remove the plates from incubator and equilibrate at room temperature for 15 minutes. Incubate the CellTiter Glo reagents (Promega, G9243) at 37° C. before the experiment. The buffer was equilibrated to room temperature and used to dissolve the substrate. To determine the cell viability, add 40 μL of CellTiter-Glo reagent into each well to be detected (at 1:1 to culture medium). Then the place the plates at room temperature for 30 min followed by read on EnSpire (PerkinElmer).
(§5) For estimation of IC50, the luminescence readout are transformed to % Inhibition by applying the following equation: The IC50 was then
(§6) [formula] calculated by fitting in XLFit to a four parameters logistic curve.

INSR = molecular target: T1, INSR (Homo sapiens, UniProt P06213); experiment: INSR inhibition assay (Caliper EZ Reader); format: biochemical; conditions: enzyme assay
T1 construct: purchased CARNA BIOSCIENCE 08-142
T1 sequence (P06213 989-1382 limits assumed): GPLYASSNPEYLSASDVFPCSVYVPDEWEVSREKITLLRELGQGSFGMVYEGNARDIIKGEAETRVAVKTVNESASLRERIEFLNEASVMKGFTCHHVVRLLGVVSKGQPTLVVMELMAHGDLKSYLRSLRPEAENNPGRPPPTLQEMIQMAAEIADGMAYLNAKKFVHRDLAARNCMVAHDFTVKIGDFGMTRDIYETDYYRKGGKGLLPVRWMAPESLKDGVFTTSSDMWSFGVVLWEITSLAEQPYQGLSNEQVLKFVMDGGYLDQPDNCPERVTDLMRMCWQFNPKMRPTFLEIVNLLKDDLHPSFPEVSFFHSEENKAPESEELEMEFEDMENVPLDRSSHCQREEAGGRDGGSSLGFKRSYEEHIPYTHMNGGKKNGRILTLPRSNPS
Protocol: (§7) Test compound was dissolved in DMSO at 30 mM. […] 20 nL of these compounds DMSO dilutes were dispensed into a new 384-well assay plate by Echo 550. […] 15 uL of kinase assay buffer containing INSR protein and substrate was transferred to assay plate and incubate at RT for 30 minutes. Kinase assay buffer supplemented with substrate peptides was employed as low control to monitor the background. 40 LM ATP was prepared in kinase assay buffer containing and 5 μL of ATP solution was added to each well to start the reaction. The assay plate was incubated at 25° C. for 180 minutes and the reaction was stopped by adding 40 μL of 0.5 M EDTA.
The result is analyzed in the same manner of […].

PC9 cells (SM) = experiment: PC-9 growth inhibition assay (cell proliferation), Method B; format: cell-based, human; conditions: cellular proliferation, several runs
Protocol: as §1, §2, §3, §4, §5, §6
PC-9 Growth Inhibition Assay (Cell Proliferation).
The inhibition assay of PC-9 cells was conducted in the same manner as described above for H1975 cells.

IGF-1R = molecular target: T2, IGF-1R (Homo sapiens, UniProt P08069); experiment: IGF-1R inhibition assay (Caliper EZ Reader); format: biochemical; conditions: enzyme assay
T2 construct: purchased CARNA BIOSCIENCE 08-141
T2 sequence (P08069 959-1367 limits assumed): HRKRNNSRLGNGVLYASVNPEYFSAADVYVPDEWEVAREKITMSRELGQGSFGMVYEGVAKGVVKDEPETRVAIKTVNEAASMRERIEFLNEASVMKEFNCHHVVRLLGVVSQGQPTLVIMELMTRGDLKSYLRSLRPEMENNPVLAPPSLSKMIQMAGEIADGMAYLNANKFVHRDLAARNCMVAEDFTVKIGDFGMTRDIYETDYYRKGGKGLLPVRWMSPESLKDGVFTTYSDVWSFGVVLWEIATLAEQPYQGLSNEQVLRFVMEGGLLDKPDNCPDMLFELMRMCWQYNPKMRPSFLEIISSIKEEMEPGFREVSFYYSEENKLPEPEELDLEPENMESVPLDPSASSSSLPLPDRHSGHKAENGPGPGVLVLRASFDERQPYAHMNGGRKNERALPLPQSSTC
Protocol: as §7, with “IGF-1R” for “INSR”, “μM” for “LM”
Phosphorylated fluorescent-tagged peptides were differentiated from non-phosphorylated peptides by separating using Caliper EZ Reader II and the detection was directly converted to conversion ratio.

EGFR_d746-750 = EGFR_d746-750 (Homo sapiens, UniProt P00533, DEL746-750); experiment: Enzyme assay, IC50 for single mutant EGFR_d746-750 (Caliper); format: biochemical; conditions: enzyme phosphorylation assay
EGFR_d746-750, sequence (P00533 with tags, fused parts or gaps DEL746-750): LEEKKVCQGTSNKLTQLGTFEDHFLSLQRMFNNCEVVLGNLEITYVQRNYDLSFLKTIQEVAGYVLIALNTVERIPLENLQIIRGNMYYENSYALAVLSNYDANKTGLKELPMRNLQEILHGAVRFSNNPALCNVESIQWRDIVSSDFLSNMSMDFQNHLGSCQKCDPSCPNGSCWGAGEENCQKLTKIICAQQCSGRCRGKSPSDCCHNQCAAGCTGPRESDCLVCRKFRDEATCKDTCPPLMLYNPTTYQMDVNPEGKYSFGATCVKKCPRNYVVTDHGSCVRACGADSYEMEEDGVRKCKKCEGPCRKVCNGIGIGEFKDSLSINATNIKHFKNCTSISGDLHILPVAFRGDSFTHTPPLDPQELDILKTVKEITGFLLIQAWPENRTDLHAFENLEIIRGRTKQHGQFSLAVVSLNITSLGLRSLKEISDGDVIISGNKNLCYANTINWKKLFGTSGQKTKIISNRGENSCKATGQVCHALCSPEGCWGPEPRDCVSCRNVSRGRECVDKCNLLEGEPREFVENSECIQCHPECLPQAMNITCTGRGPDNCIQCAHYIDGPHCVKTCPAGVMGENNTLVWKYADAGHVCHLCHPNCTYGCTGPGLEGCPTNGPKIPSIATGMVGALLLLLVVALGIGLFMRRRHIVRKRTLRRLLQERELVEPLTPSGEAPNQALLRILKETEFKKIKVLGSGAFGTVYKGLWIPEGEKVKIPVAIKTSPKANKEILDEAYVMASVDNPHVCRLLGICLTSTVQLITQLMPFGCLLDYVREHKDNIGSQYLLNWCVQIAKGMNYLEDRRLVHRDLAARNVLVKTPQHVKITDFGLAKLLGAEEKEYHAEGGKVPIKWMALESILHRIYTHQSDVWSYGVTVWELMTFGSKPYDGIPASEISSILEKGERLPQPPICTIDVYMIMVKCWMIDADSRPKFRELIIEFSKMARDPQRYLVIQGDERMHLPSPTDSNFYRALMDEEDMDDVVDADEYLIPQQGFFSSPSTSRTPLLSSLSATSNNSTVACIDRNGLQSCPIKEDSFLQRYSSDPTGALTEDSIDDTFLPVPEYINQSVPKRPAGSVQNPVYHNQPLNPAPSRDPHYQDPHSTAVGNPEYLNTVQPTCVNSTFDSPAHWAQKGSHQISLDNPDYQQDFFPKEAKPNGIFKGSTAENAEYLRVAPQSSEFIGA
Protocol: (§8) Using the same technique as described in the previous paragraph, various mutated forms of the epidermal growth factor receptor may be isolated from appropriate cell lines which contain them. For example, the EGFR de1746-750 mutant protein may be extracted from PC-9 cells, and the L858R/T790M double mutant EGFR protein may be isolated from H1975 cells.
Determination of IC50 Values for Single Mutant EGFR_d746-750
Dilute all compounds to 500 μM stock solutions in 100% DMSO and make a serial of 4-fold dilution for 10 doses. “Max” and “Min” control contain 100% DMSO. “Max” stands for […], “Min” stands for low control without compounds. Transfer 10 μl of compounds to 90 μl of 1× kinase base buffer to make intermediate dilution. […] Incubate at RT for 1 hr and 25 μl stop buffer to end up reaction. Collect conversion data from Caliper and conversion data from Caliper program. Fit the data in XLfit to obtain IC50 values.

Wt EGFR = molecular target: T3, Wt EGFR (Homo sapiens, UniProt P00533); experiment: Enzyme assay, IC50 for wt EGFR (Caliper); format: biochemical; conditions: enzyme phosphorylation assay; read-out: EGFR_WT IC50
T3 construct: isolated from A431 human epidermoid carcinoma cells which overexpress EGF receptor; endogenous in cells; host or cells: A431 human epidermoid carcinoma cells (receptor purified on wheat germ agglutinin sepharose)
T3 sequence (P00533 25-1210): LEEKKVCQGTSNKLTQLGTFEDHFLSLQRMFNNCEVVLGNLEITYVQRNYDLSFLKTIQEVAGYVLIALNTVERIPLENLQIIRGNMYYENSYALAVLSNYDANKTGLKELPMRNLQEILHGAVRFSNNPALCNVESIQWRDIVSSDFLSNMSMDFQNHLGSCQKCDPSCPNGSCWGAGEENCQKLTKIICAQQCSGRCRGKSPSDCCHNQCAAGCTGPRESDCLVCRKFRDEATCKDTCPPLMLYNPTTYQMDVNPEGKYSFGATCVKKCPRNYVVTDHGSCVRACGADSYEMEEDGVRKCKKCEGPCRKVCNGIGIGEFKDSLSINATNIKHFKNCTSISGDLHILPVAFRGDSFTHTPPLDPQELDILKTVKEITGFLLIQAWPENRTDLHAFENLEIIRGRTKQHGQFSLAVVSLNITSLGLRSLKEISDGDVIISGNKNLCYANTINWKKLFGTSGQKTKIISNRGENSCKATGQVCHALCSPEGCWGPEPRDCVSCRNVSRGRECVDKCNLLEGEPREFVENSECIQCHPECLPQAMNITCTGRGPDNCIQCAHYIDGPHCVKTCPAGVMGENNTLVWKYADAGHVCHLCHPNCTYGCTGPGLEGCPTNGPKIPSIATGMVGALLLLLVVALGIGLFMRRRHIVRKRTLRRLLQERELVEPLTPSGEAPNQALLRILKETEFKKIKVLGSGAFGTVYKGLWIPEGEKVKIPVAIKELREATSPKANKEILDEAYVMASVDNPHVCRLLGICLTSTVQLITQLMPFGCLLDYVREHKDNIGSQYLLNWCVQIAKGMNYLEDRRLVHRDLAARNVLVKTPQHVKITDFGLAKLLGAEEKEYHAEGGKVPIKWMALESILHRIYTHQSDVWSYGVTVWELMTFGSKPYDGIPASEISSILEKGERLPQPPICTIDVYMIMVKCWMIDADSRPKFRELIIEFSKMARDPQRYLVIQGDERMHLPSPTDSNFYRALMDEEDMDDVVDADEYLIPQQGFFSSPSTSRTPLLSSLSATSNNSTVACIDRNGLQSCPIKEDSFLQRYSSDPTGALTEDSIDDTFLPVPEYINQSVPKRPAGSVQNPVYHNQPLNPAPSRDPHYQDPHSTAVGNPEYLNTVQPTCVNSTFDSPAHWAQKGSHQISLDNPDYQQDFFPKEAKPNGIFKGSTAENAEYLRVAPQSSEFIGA
Protocol: Purification of Epidermal Growth Factor Receptor Tyrosine Kinase Human EGF receptor tyrosine kinase was isolated from A431 human epidermoid carcinoma cells which overexpress EGF receptor by the following methods. Cells were grown in roller bottles in 50% Delbuco's Modified Eagle and 50% HAM F-12 nutrient media (Gibco) containing 10% fetal calf serum. Approximately 10^9 cells were lysed in two volumes of buffer containing 20 mM 2-(4N-[2-hydroxyethyl]piperazin-1-yl)ethanesulfonic acid (hepes), pH 7.4, 5 mM ethylene glycol bis(2-aminoethyl ether) N,N,N′,N′-tetraacetic acid, 1% Triton X-1OO, 10% glycerol. 0.1 mM sodium orthovanadate, 5 mM sodium fluoride, 4 mM pyrophosphate, 4 mM benzamide, 1 mM dithiothreitol, 80 μg/mL aprotinin, 40 μg/mL leupeptin and 1 mM phenylmethylsulfonyl fluoride. After centrifugation at 25,000×g for 10 minutes, the supernatant was equilibrated for 2 h at […], with 10 mL of wheat germ agglutinin sepharose that was previously equilibrated with 50 mM Hepes, 10% glycerol, 0.1% Triton X-100 and 150 mM NaCl, pH 7.5, (equilibration buffer). Contaminating proteins were washed from the resin with 1M NaCl in equilibration buffer, and the enzyme was eluted with 0.5M N-acetyl-1-D-glucosamine in equilibration buffer, followed by 1 mM urea. The enzyme was eluted with 0.1 mg/ml EGF.
Determination of IC50 Values for Wt EGFR
Dilute all compounds to 500 μM stock solutions in 100% DMSO and make a serial of 4-fold dilution for 10 does. “Max” and “Min” control contain 100% DMSO. “Max” stands for […], “Min” stands for low control without compounds. Transfer 10 μl of compounds to 90 μl of Ix kinase base buffer to make intermediate dilution. Transfer 5 μl of intermediate dilution compounds to the 384-well assay plate, then 10 μl 2.5× enzyme buffer containing (20 nM EGFR, 5 mM DTT, 1× kinase base buffer) were added to assay plate. […] Incubate at RT for 1 hr and 25 μl stop buffer to end up reaction. Collect conversion data from Caliper and conversion data from Caliper program. Fit the data in XLfit to obtain IC50 values.

EGFR_T790M/L858R = EGFR_T790M/L858R (Homo sapiens, UniProt P00533, L858R/T790M); experiment: Enzyme assay, IC50 for double-mutant EGFR (EGFR_T790M/L858R) (Caliper); format: biochemical; conditions: enzyme phosphorylation assay; read-out: EGFR_L858R/T790 IC50
EGFR_T790M/L858R, sequence (P00533 25-1210 T790M/L858R): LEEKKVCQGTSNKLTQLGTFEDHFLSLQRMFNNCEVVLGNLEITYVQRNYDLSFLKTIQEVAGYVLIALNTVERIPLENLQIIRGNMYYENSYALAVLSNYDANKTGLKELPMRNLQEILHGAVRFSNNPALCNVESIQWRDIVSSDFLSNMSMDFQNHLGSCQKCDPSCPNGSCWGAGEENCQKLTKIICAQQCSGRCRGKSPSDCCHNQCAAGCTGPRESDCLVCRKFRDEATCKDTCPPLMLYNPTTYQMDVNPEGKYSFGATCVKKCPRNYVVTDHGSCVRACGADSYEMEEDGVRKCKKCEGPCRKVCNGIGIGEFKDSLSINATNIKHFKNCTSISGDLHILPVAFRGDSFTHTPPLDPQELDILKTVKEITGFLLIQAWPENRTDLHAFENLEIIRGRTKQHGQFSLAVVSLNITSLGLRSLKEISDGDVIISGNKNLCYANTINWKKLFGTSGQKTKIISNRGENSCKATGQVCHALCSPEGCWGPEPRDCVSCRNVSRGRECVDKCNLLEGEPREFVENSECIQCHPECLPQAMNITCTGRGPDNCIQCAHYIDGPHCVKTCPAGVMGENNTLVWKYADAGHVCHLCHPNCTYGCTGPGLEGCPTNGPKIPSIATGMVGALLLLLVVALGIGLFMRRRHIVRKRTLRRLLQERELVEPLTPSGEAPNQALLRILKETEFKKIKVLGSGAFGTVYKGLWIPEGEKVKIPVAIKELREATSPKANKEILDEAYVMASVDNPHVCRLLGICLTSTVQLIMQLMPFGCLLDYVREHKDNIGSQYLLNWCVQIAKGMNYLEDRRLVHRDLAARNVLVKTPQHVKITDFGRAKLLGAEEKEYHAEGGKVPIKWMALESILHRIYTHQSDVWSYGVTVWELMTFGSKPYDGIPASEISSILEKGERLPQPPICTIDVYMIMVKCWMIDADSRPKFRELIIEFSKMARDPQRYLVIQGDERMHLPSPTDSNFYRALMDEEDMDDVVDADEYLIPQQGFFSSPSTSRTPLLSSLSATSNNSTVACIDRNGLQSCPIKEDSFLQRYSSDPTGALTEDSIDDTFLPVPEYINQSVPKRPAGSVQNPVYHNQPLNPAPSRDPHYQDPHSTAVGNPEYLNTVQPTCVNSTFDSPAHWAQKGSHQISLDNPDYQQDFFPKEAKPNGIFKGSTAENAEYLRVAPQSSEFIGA
Protocol: as §8
Determination of IC50 Values for Double-Mutant EGFR (EGFR_T790M/L858R)
Dilute all compounds to 500 μM stock solutions in 100% DMSO and make a serial of 4-fold dilution for 10 does. “Max” and “Min” control contain 100% DMSO. “Max” stands for […], “Min” stands for low control without compounds. Transfer 10 μl of compounds to 90 μl of 1× kinase base buffer to make intermediate dilution. […] Incubate at RT for 1 hr and 25 μl stop buffer to end up reaction. Collect conversion data from Caliper and conversion data from Caliper program. Fit the data in XLfit to obtain IC50 values.

[1] = tested on: PC9 cells (EGFR d746-750 single mutant); experiment: PC-9 growth inhibition assay (cell proliferation), Method A; format: cell-based, human; conditions: Homo sapiens, PC-9; cellular proliferation, *tested by method A (Table 2); read-out: SM (PC9) IC50
Protocol: (§9) Cell Proliferation Assays—Method A
(§10) The final concentration was 4,000 cells/well. Add medium only as low control.
(§11) Day-2: Test compounds were dissolved in DMSO at 0.2 mM (200×).
(§12) Day-5: After 72 hours incubation, remove the plates from incubator and equilibrate at room temperature for 15 minutes. Incubate the CellTiter Glo reagents (Promega, G9243) at 37° C. before the experiment. The buffer was equilibrated to room temperature and used to dissolve the substrate. To determine the cell viability, add 30 μL of CellTiter-Glo reagent into each well to be detected. Then shake the plates at room temperature for 10 min and followed by plate read on Envision (PerkinElmer).
as §5, §6
PC-9 Growth Inhibition Assay (Cell Proliferation)
The inhibition assay for PC-9 cells was processed in the same manner as described for the H1975 cells.

[2] = tested on: NCI-H1975 cells (EGFR L858R/T790 double mutant); experiment: H1975 inhibition assay (cell proliferation), Method A; format: cell-based; conditions: Homo sapiens, NCI-H1975; cellular proliferation, *tested by method A (Table 2); read-out: DM (H1975) IC50
Protocol: as §9
H1975 Inhibition Assay (Cell Proliferation)
as §10, §11, §12, §5, §6

SMILES | IC50 (A431 cells (WT)) [nM] | IC50 (H1975 cells (DM); Homo sapiens, NCI-H1975, 72 h) [nM] | IC50 (INSR) [nM] | IC50 (PC9 cells (SM); Homo sapiens, PC-9, 72 h) [nM] | IC50 (IGF-1R) [nM] | also measured
C=CC(=O)Nc1cc(Nc2nccc(-n3cc(C(=O)O)c4ccccc43)n2)c(OC)cc1N(C)CCN(C)C [Example 30, 1-(2-((5-Acrylamido-4-((2-(dimethylamino)ethyl)(methyl)amino)-2-methoxyphenyl)amino)pyrimidin-4-yl)-1H-indole-3-carboxylic acid] | 1680 | 20.4 | 206 | 19.2 | 210 | –
C=CC(=O)Nc1cc(Nc2nccc(-c3cn(C)c4cccc(Cl)c34)n2)c(OC)cc1N(C)CCN(C)C [Example 6, N-(2-(N-(2-(N,N-Dimethylamino)ethyl)-N-methylamino)-4-methoxy-5-(4-(4-chloro-1N-methylindol-3-yl)pyrimidin-2-ylamino)phenyl) propenamide] | – | – | – | – | – | IC50 (EGFR_d746-750): 9.2 nM; IC50 (Wt EGFR): 44 nM; IC50 (EGFR_T790M/L858R): 7 nM
C=CC(=O)Nc1cc(Nc2nccc(-c3c[nH]c4c(C(N)=O)cccc34)n2)c(OC)cc1N(C)CCN(C)C [Example 16, 3-(2-(5-Acrylamido-4-((2-(dimethylamino)ethyl)(methyl)amino)-2-methoxyphenylamino)pyrimidin-4-yl)-1H-indole-7-carboxamide] | 121 | 0.72 | 4.76 | 0.76 | 3.94 | –
C=CC(=O)Nc1cc(Nc2nccc(-c3cn(C)c4cccc(C)c34)n2)c(OC)cc1N(C)CCN(C)C [Example 5, N-(2-(N-(2-(N,N-Dimethylamino)ethyl)-N-methylamino)-4-methoxy-5-(4-(1 N,4-dimethylindol-3-yl)pyrimidin-2-ylamino)phenyl)propenamide] | – | – | – | – | – | IC50 (EGFR_d746-750): 8.2 nM; IC50 (Wt EGFR): 31 nM; IC50 (EGFR_T790M/L858R): 2.7 nM
C=CC(=O)Nc1cc(Nc2nccc(-n3cc(CN)c4ccccc43)n2)c(OC)cc1N(C)CCN(C)C [Example 19, N-(5-(4-(3-(Aminomethyl)-1H-indol-1-yl)pyrimidin-2-ylamino)-2-((2-(dimethylamino)ethyl)(methyl)amino)-4-methoxyphenyl) acrylamide] | – | – | – | – | – | IC50 [1]: 16.7 nM; IC50 [2]: 12.7 nM
C=CC(=O)Nc1cc(Nc2nccc(-n3cc(S(N)(=O)=O)c4ccccc43)n2)c(OC)cc1N(C)CCN(C)C [Example 17, N-(2-((2-(Dimethylamino)ethyl)(methyl)amino)-4-methoxy-5-(4-(3-sulfamoyl-1H-indol-1-yl)pyrimidin-2-ylamino)phenyl) acrylamide] | 162 | 0.94 | 67.6 | 0.93 | 71.2 | –
C=CC(=O)Nc1cc(Nc2nccc(-n3cc(C(=O)NC)c4ccccc43)n2)c(OC)cc1N(C)CCN(C)C [Example 36, N-Methyl 1-(2-((5-acrylamido-4-((2-(dimethylamino)ethyl)(methyl)amino)-2-methoxyphenyl)amino)pyrimidin-4-yl)-1H-indole-3-carboxamide hydrochloride] | – | – | – | – | – | IC50 [1]: 57.5 nM; IC50 [2]: 39.5 nM

Further lines, with some results ahead:

IC50 (A431 cells (WT)) [nM] | IC50 (H1975 cells (DM); Homo sapiens, NCI-H1975, 72 h) [nM] | IC50 (INSR) [nM] | IC50 (PC9 cells (SM); Homo sapiens, PC-9, 72 h) [nM] | IC50 (IGF-1R) [nM] | SMILES | also measured
40 | 0.41 | 2.28 | 0.64 | 2.15 | C=CC(=O)Nc1cc(Nc2nccc(-n3nc(C(N)=O)c4ccccc43)n2)c(OC)cc1N(C)CCN(C)C [Example 18, 1-(2-(5-Acrylamido-4-((2-(dimethylamino)ethyl)(methyl)amino)-2-methoxyphenylamino)pyrimidin-4-yl)-1H-indazole-3-carboxamide] | –
– | 2.35 | 19.3 | 1.92 | 23.5 | C=CC(=O)Nc1cc(Nc2nccc(-n3nc(N)c4ccccc43)n2)c(OC)cc1N(C)CCN(C)C [Example 20] | IC50 (H1975 cells (DM); 72 h): 2.12 nM; IC50 (PC9 cells (SM); 72 h): 1.54 nM
